Measurements from patent US5846944A (priority 1997, dated 1998).

Tests used:
[1] = tested on: New Zealand white rabbits; assay: Serum lipids (TC, LDL-C, VLDL-C, HDL-C, triglycerides) in rabbits on experimental diets (Example 1); type: in vivo
Procedure: (§1) Experiments were carried out on six to eight week old female New Zealand white rabbits weighing between 1.8 and 2.0 kg. All procedures relating to the care and welfare of test animals within this experimental protocol conformed to a Standard Operating Procedure (SOP) approved by the Council on Animal Care, University of Saskatchewan, Saskatoon, Saskatchewan, Canada.
Blood samples for measurement of triglycerides (TG), total cholesterol (TC), low density lipoprotein cholesterol (LDL-C), very-low density lipoprotein cholesterol (VLDL-C), and high density lipoprotein cholesterol (HDL-C) were taken before the animals were assigned to the experimental diet (T=0), and after 1 (T=1) and 2 months (T=2) on the experimental diet. The rabbits were sacrificed under pentabarbital anesthesia at the end of 2 months. The aorta was removed for the assessment of atherosclerotic plaques. […]

[2] = Body weight of hypercholesterolemic rabbits (Example 1); type: in vivo, New Zealand white rabbits
Procedure: as §1
(§2) Blood samples for measurement of triglycerides (TG), total cholesterol (TC), low density lipoprotein cholesterol (LDL-C), very-low density lipoprotein cholesterol (VLDL-C), and high density lipoprotein cholesterol (HDL-C) were taken before the animals were assigned to the experimental diet (T=0), and after 1 (T=1) and 2 months (T=2) on the experimental diet. The rabbits were sacrificed under pentabarbital anesthesia at the end of 2 months. The aorta was removed for the assessment of atherosclerotic plaques.
Much has been made of the importance of the composition of certain dietary fats toward health, particularly in relation to the degree of saturation of the fatty acid composition of the triglycerides.

[3] = tested on: New Zealand white rabbits; assay: Serum lipids in rabbits (Example 4); type: in vivo; details: + 1% cholesterol
Procedure: as §1, §2

[4] = 0 month, + 1% cholesterol group
[5] = 0 month, control diet without cholesterol
[6] = 1 month, + 1% cholesterol, flaxseed 15% or SDG 15 mg/kg oral
[7] = 1 month, control diet without cholesterol, flaxseed 15% or SDG 15 mg/kg oral
[8] = 2 months, + 1% cholesterol, flaxseed 15% or SDG 15 mg/kg oral
[9] = 2 months, control diet without cholesterol, flaxseed 15% or SDG 15 mg/kg oral
[10] = 0 months, SDG 5 mg/kg or SDG (89% pure) 11.24 mg/kg group
[11] = 1 month, SDG 5 mg/kg or SDG (89% pure) 11.24 mg/kg, orally daily
[12] = 2 months, SDG 5 mg/kg or SDG (89% pure) 11.24 mg/kg, orally daily

SMILES: COc1cc(CC(COC2OC(CO)C(O)C(O)C2O)C(COC2OC(CO)C(O)C(O)C2O)Cc2ccc(O)c(OC)c2)ccc1O (centres unmarked) [SDG, secoisolariciresinol diglucoside]
- Serum HDL-C levels [1, 4]: 0.62 ± 0.10 mmol/L
- Serum LDL-C levels [1, 4]: 1.09 ± 0.19 mmol/L
- Serum Triglyceride levels [1, 4]: 1.21 ± 0.09 mmol/L
- Serum VLDL-C levels [1, 4]: 0.55 ± 0.04 mmol/L
- Total serum cholesterol levels [1, 4]: 2.26 ± 0.25 mmol/L
- Serum HDL-C levels [1, 5]: 0.58 ± 0.09 mmol/L
- Serum LDL-C levels [1, 5]: 0.34 ± 0.09 mmol/L
- Serum Triglyceride levels [1, 5]: 1.10 ± 0.13 mmol/L
- Serum VLDL-C levels [1, 5]: 0.50 ± 0.06 mmol/L
- Total serum cholesterol levels [1, 5]: 1.42 ± 0.11 mmol/L
- Serum HDL-C levels [1, 6]: 1.30 ± 0.18 mmol/L
- Serum LDL-C levels [1, 6]: 66.26 ± 7.23 mmol/L
- Serum Triglyceride levels [1, 6]: 1.40 ± 0.17 mmol/L
- Serum VLDL-C levels [1, 6]: 0.64 ± 0.08 mmol/L
- Total serum cholesterol levels [1, 6]: 68.20 ± 7.41 mmol/L
- Serum HDL-C levels [1, 7]: 0.60 ± 0.06 mmol/L
- Serum LDL-C levels [1, 7]: 0.33 ± 0.06 mmol/L
- Serum Triglyceride levels [1, 7]: 0.63 ± 0.02 mmol/L
- Serum VLDL-C levels [1, 7]: 0.29 ± 0.01 mmol/L
- Total serum cholesterol levels [1, 7]: 1.22 ± 0.11 mmol/L
- Serum HDL-C levels [1, 8]: 1.20 ± 0.48 mmol/L
- Serum LDL-C levels [1, 8]: 43.25 ± 6.64 mmol/L
- Serum Triglyceride levels [1, 8]: 1.83 ± 0.35 mmol/L
- Serum VLDL-C levels [1, 8]: 0.83 ± 0.16 mmol/L
- Total serum cholesterol levels [1, 8]: 45.18 ± 6.68 mmol/L
- Serum HDL-C levels [1, 9]: 0.50 ± 0.00 mmol/L
- Serum LDL-C levels [1, 9]: 0.25 ± 0.04 mmol/L
- Serum Triglyceride levels [1, 9]: 0.60 ± 0.12 mmol/L
- Serum VLDL-C levels [1, 9]: 0.27 ± 0.02 mmol/L
- Total serum cholesterol levels [1, 9]: 1.12 ± 0.10 mmol/L
- Body weight [2, 4]: 1.25 ± 0.03 kg
- Body weight [2, 5]: 1.75 ± 0.02 kg
- Body weight [2, 6]: 1.98 ± 0.08 kg
- Body weight [2, 7]: 2.34 ± 0.04 kg
- Body weight [2, 8]: 2.35 ± 0.10 kg
- Serum HDL-C levels [3, 10]: 0.83 ± 0.08 mmol/L
- Serum LDL-C levels [3, 10]: 0.89 ± 0.14 mmol/L
- Serum Triglyceride levels [3, 10]: 1.30 ± 0.19 mmol/L
- Serum VLDL-C levels [3, 10]: 0.59 ± 0.09 mmol/L
- Total serum cholesterol levels [3, 10]: 2.31 ± 0.19 mmol/L
- Serum HDL-C levels [3, 11]: 0.76 ± 0.42 mmol/L
- Serum LDL-C levels [3, 11]: 75.98 ± 9.04 mmol/L
- Serum Triglyceride levels [3, 11]: 0.97 ± 0.16 mmol/L
- Serum VLDL-C levels [3, 11]: 0.44 ± 0.08 mmol/L
- Total serum cholesterol levels [3, 11]: 77.24 ± 7.22 mmol/L
- Serum HDL-C levels [3, 12]: 0.48 ± 0.10 mmol/L
- Serum LDL-C levels [3, 12]: 58.68 ± 9.69 mmol/L
- Serum Triglyceride levels [3, 12]: 0.87 ± 0.20 mmol/L
- Serum VLDL-C levels [3, 12]: 0.39 ± 0.09 mmol/L
- Total serum cholesterol levels [3, 12]: 59.61 ± 9.8 mmol/L
